In brackets after ≈: the same amount, converted by molar mass. Residues, ends and D or L forms follow the SMILES beside them.
conditions: buffer; pH 7.4; 200.0 µM

SMILES	solubility kinetic [µg/mL]
COC(=O)C[N+](C)(C)C/C=C\c1ccccc1.[Br-]	> 47.1
Cc1c(C=Nc2ccc(S(=O)(=O)CCO)cc2)c(O)[nH]c(=O)c1C#N	> 54.2
O=C(COC(=O)/C=C/c1cccs1)NC1CC1	> 37.7
O=S(=O)(Nc1ccccc1N1CCOCC1)c1cccs1	4.2 (≈ 12.9 µM)
COc1ccc2c(c1)C(=C(C#N)C#N)C(=O)N2CCc1ccccc1	3.4 (≈ 10.3 µM)
COc1ccc(C(OC(=O)c2ccco2)C(=O)NC2CCCC2)cc1 (stereo not drawn)	3.4 (≈ 9.9 µM)
CCOC(=O)C1=C(C)OC(N)=C(C#N)C1c1cc(SCC)oc1C (stereo not drawn)	23.9 (≈ 68.6 µM)
CCc1cc(=O)oc2cc(C)cc(OCC(=O)NC3CC3)c12	25 (≈ 83 µM)
O=C(/C=C/c1ccccc1Cl)OCC(=O)N1CCCC1	> 44.1
Cn1c(=O)c([N+](=O)[O-])c(NCC2CCCO2)c2ccccc21 (stereo not drawn)	> 45.5
COc1ccc(Cl)cc1NC(=O)NCCN1CCCCC1	> 46.8
Cc1cc(/C=N/NC(N)=O)c(C)n1C1CCCCC1	> 39.4
O=C1Nc2ccc(Br)cc2C(c2ccccc2)=NC1O (stereo not drawn)	> 49.7
O=C1NC(c2ccc(Cl)cc2Cl)Oc2ccccc21 (stereo not drawn)	0.9 (≈ 3.06 µM)
CCCn1c(C(O)c2ccc(C)cc2)nc2ccccc21 (stereo not drawn)	15.9 (≈ 56.7 µM)
Nc1ccccc1Sc1ccc(C(F)(F)F)cc1[N+](=O)[O-]	5.6 (≈ 17.8 µM)
COc1ccc(-c2nnc(SCC(=O)N(C)C3CCS(=O)(=O)C3)n2C(C)C)cc1 (stereo not drawn)	> 65.8
COC(=O)c1ccc(CN(C)S(=O)(=O)c2cccs2)cc1	2.6 (≈ 7.99 µM)
CN(CC(=O)Nc1ccc(F)cc1)C(=O)CN1C(=O)NC2(CCCCC2)C1=O	0.7 (≈ 1.79 µM)
Cn1cncc1C(=O)c1ccccc1	> 27.9
CN(Cc1nc(CCc2ccccc2)no1)Cc1cccs1	18.4 (≈ 58.7 µM)
COc1cc(CC(=O)OCC(=O)N2CCCCC2)cc(OC)c1OC	46.5 (≈ 132 µM)
Cc1ccc(CNC(=S)NC2CCC(C(C)(C)C)CC2)cc1 (stereo not drawn)	< 0.3
C=C(C)Cc1c(C)c(C#N)c2[nH]c3ccccc3n2c1=O	2.9 (≈ 10.5 µM)

SMILES	solubility kinetic [µg/mL]
CSc1ncc(C(=O)Nc2ccccc2F)c(-c2ccccc2)n1	1.3 (≈ 3.83 µM)
CCCN1CCN(CC(=O)Nc2nnc(CC)s2)CC1	> 44.6
Cl.OC(c1ccccc1)C(CN1CCOCC1)c1ccccc1 (stereo not drawn)	> 50.1
N#Cc1ccccc1CCN1C(=O)c2ccccc2C1=O	19.6 (≈ 70.9 µM)
CCOC(=O)n1c(=O)n(Cc2ccc(OC)cc2)c2ccccc21	29.5 (≈ 90.4 µM)
O=C(O)CCC(=O)N1CCC[C@H]1C(=O)O	> 32.3
CC(=Nc1ccc(F)cc1)c1c(O)n(C)c(=O)[nH]c1=O	7 (≈ 25.2 µM)
CC1=C([N+](=O)[O-])C(c2ccccc2Cl)NC(=O)N1C (stereo not drawn)	> 42.3
C=C1c2cc(C)c(C)cc2NC(=O)N1c1ccccc1	24.4 (≈ 92.3 µM)
CCC(=O)N1c2ccccc2C(N(C(=O)CC)c2ccccc2)CC1C (stereo not drawn)	> 52.6
CCCCc1nnc(SCC(=O)Nc2nccs2)n1C	> 46.7
O=C(Cn1c(=S)[nH]c2ccccc2c1=O)NCCc1ccccc1	0.9 (≈ 2.65 µM)
COC(=O)[C@H](Cc1ccccc1)NC(=O)[C@@H](N)CC(=O)O (H-Asp-Phe-OMe)	> 44.1
COc1ccc(CC(=O)NCc2nc(-c3ccccc3)no2)cc1	13.4 (≈ 41.4 µM)
O=C(Cc1ccc(Cl)cc1)NC1CCCCCC1	10.2 (≈ 38.4 µM)
CCCc1cc(=O)[nH]c(SCC(=O)Nc2c(C)n(C)n(-c3ccccc3)c2=O)n1	> 62
CCOC(=O)Nc1ccc2c(COC(=O)C(NS(=O)(=O)c3ccc(Cl)cc3)C(C)O)cc(=O)oc2c1 (stereo not drawn)	20.5 (≈ 38 µM)
Cc1cccc(C)c1NC(=O)COC(=O)c1ccc([N+](=O)[O-])o1	34.3 (≈ 108 µM)
CC(=O)N(C)c1ccc(NC(=O)Nc2cccc3ccccc23)cc1	1.3 (≈ 3.9 µM)
O=C(COc1ccccc1)NS(=O)(=O)c1ccccc1	38.1 (≈ 131 µM)
CCCOc1ccc(Cc2c(O)nc(SC)[nH]c2=O)cc1	44.6 (≈ 146 µM)
Cl.Nc1ccc(-c2nc3c(ccc4ccccc43)[nH]2)cc1	> 44.4
CC1CC(C)CN(C(=O)Nc2ccccc2F)C1 (stereo not drawn)	15 (≈ 59.9 µM)
O=C(CSc1nc(-c2ccccc2)cc(=O)[nH]1)Nc1ccccc1	1.3 (≈ 3.85 µM)

SMILES	solubility kinetic [µg/mL]
CCOc1ccc2nc(SCC(=O)NCc3ccc(S(N)(=O)=O)cc3)[nH]c2c1	35.2 (≈ 83.7 µM)
Cc1ccc(C(C)NC(=O)C2CCCC2)cc1C (stereo not drawn)	31.4 (≈ 128 µM)
O=C1CCCc2nc(N3CCN(C(=O)c4ccco4)CC3)ncc21	> 49
CCCN1CCC(NC(=S)Nc2cccc(Cl)c2Cl)CC1	> 51.9
O=C(COc1ccccc1Cl)Nc1ccc2c(c1)C(=O)NC2=O	< 0.4
Cc1nc(C)c(-c2csc(Nc3ncccc3C)n2)s1	< 0.2
O=C(c1ccco1)N1CCCC(Nc2ccc3c(c2)OCCO3)C1 (stereo not drawn)	44.7 (≈ 136 µM)
O=C(CCN1C(=O)c2ccccc2C1=O)Nc1cccc(O)c1	> 46.5
Cc1cc(O)c(CN(C)C)c2c1C(=O)/C(=C/c1ccco1)O2	> 44.9
CSc1cccc(NC(=O)CCCNC(=O)c2ccc(Cl)cc2)c1	4.5 (≈ 12.4 µM)
O=C(NNC(=O)c1ccncc1)c1ccccc1	> 36.2
Cc1ccc(C(=O)Nc2ccc(Cl)cc2C)c(Cl)c1	< 0.6
Oc1ccccc1N1CCN(C(c2ccccc2)c2ccccc2)CC1	0.4 (≈ 1.16 µM)
Cc1ccc(-c2csc(N=C(N)N)n2)c(C)c1	8 (≈ 32.5 µM)
O=C(Nc1ccc([N+](=O)[O-])cc1)c1ccccc1	2.2 (≈ 9.08 µM)
CCc1cn(C2CC(O)C(CO)O2)c(=O)[nH]c1=O (stereo not drawn)	> 38.4
CCCOc1ccc(CN(C)c2ncnc(N)n2)cc1	13.5 (≈ 49.4 µM)
CC(CNC(=O)c1ccc2c(c1)OCO2)c1ccc([N+](=O)[O-])cc1 (stereo not drawn)	2 (≈ 6.09 µM)
Oc1ccc(Cl)cc1CNc1cnc2ccccc2c1	1.2 (≈ 4.21 µM)
Cc1ccc(CCC(=O)Nc2ccc(Br)cc2)o1	4.2 (≈ 13.6 µM)
O=C(NCc1ccc(Cl)cc1)c1cc2ccccc2oc1=O	< 0.7
Cc1ccc(S(=O)(=O)NCCc2cccs2)cc1	> 42.2
Cc1ccnc(N2C(=O)c3ccc([N+](=O)[O-])cc3C2=O)c1	> 42.5
Cc1ccccc1OCC(=O)OCC(=O)N1CCc2ccccc21	1.8 (≈ 5.53 µM)

SMILES	solubility kinetic [µg/mL]
COc1ccccc1C1CCN(c2cc(O)ccc2[N+](=O)[O-])CC1	38.9 (≈ 118 µM)
Cc1ccc(CNC(=O)C2CCCN(c3cnccn3)C2)cc1 (stereo not drawn)	> 46.6
O=C(C[n+]1ccccc1)Nc1ccccc1	26.3
O=C(CSc1n[nH]c(=O)n1C1CC1)Nc1ccccc1	> 43.6
COC(=O)Cc1c(O)ccn(C2CC2)c1=O	> 33.5
O=C(Cc1cc2ccccc2o1)NCc1ccc(F)cc1	5 (≈ 17.6 µM)
O=C(NCCCn1ccnc1)c1ccc(Cl)s1	> 40.5
CCCC(C)NC(=O)COC(=O)c1cccc(NS(C)(=O)=O)c1 (stereo not drawn)	50.7 (≈ 148 µM)
N#Cc1ccc(S(=O)(=O)N2CCc3[nH]c4ccc(F)cc4c3C2)cc1	< 0.3
Cc1cc(C)nc(N2CCCC(C(=O)NC3CC3)C2)n1 (stereo not drawn)	> 41.2
COc1ccc(NC(=O)N2CCCc3ccccc32)cc1OC	> 46.9
CN(C(=O)CSc1nc2ccc(Cl)cc2[nH]1)C1CCS(=O)(=O)C1 (stereo not drawn)	> 56.1
O=C(CC(=O)c1ccccc1)Nc1ccccn1	> 36
CCCNc1nc(N2CCCC2)nc(N2CCCC2)n1	33.6 (≈ 122 µM)
O=C(NCC(=O)N1CCN(S(=O)(=O)c2ccc3c(c2)OCCO3)CC1)c1ccccc1F	10.2 (≈ 22 µM)
O=C(Cc1ccccc1)c1c[nH]c(C(=O)C(Cl)(Cl)Cl)c1	28.1 (≈ 85 µM)
CC(=O)c1c(C)[nH]c(C(=O)Nc2cccc(S(=O)(=O)N3CCCC3)c2)c1C	7 (≈ 18 µM)
CC(C)(C)C(=O)/C=c1\[nH]c(=O)/c(=C\c2ccccc2F)s1	< 0.7
CC(C)CN1CCN(CC#Cc2ccccc2)CC1CCO (stereo not drawn)	43.6 (≈ 145 µM)
CC(C)c1ccc(NC(=O)c2ccccc2NC(=O)C2CC=CCC2C(=O)O)cc1 (stereo not drawn)	> 61
O=c1c2ccccc2nc2n1CCS2(=O)=O	34.6 (≈ 146 µM)
COc1ccc(Cl)cc1S(=O)(=O)Nc1ccc(Cl)cn1	1.3 (≈ 3.9 µM)
CCN1CCc2c(OCC(=O)N3CCCCC3)cccc2C1=O	> 47.5
O=C(C1CCCCCC1)N1CC[C@@H](N2CCC(O)CC2)[C@H](O)C1	> 48.7

SMILES	solubility kinetic [µg/mL]
O=CNCCCc1nc2ccccc2n1CCc1ccccc1	> 46.1
O=C(Nc1cccc(Cl)c1)c1cc(F)cc2c1OCOC2	< 0.7
CC1CC(C)CN(C(=O)COC(=O)c2nccnc2N)C1 (stereo not drawn)	> 43.9
COc1ccc(CNc2ccc([N+](=O)[O-])cc2C)cc1	2.1 (≈ 7.71 µM)
COc1ccccc1-n1c(CCC(=O)O)ccc1-c1ccccc1	> 48.2
O=S(=O)(Nc1ccon1)c1ccc(F)c(F)c1	25.9 (≈ 99.5 µM)
CC(C)(C)c1ccc(C(=O)Nc2ccc(NC(=O)C(=O)O)cc2)o1	44.5 (≈ 135 µM)
Cc1[nH]c(=O)[nH]c(=O)c1S(=O)(=O)N1CCCCC1	> 41
Cc1ccc2c(c1)NC(=O)c1cccc([N+](=O)[O-])c1CO2	7 (≈ 24.6 µM)
CCc1noc(C)c1C(=O)NCCc1c[nH]c2ccccc12	> 44.6
CSc1ncccc1C(=O)Nc1cccc(S(=O)(=O)N2CCOCC2)c1	> 59
OCCC1CN(Cc2cccnc2)CCN1CCc1ccccc1 (stereo not drawn)	42.4 (≈ 130 µM)
CCN(CC)C(=S)Oc1ccc(Cl)cc1Cl	0.9 (≈ 3.24 µM)
COc1ccc(-c2cc(-c3ccc(O)cc3)nc(N)c2C#N)cc1OC	1.7 (≈ 4.89 µM)
COc1nc2ccccc2nc1N1CCN(Cc2ccc3c(c2)OCO3)CC1	2.9 (≈ 7.66 µM)
CSc1nc2cc(Oc3cccc(Cl)c3Cl)c(Cl)cc2[nH]1	0.5 (≈ 1.39 µM)
CC(=O)Nc1ccc(OCC(=O)NC(C)c2ccc(F)cc2)cc1 (stereo not drawn)	> 49.6
Cc1cccc(C)c1OC(=O)Cc1ccccc1[N+](=O)[O-]	1.8 (≈ 6.31 µM)
CC(=O)Nc1ccc(C2NC(=O)CCC2[N+](=O)[O-])cc1 (stereo not drawn)	31.7 (≈ 114 µM)
CN1CC(C(=O)c2cccs2)C(c2ccc(Cl)cc2)C1 (stereo not drawn)	> 45.9
CC1(c2ccccc2)NC(=O)N(CC(=O)Nc2ccc(N3CCOCC3)cc2)C1=O (stereo not drawn)	27.6 (≈ 67.6 µM)
COc1ccc(NC(=O)C2COc3ccccc3O2)cc1 (stereo not drawn)	> 42.8
